Legend:
[1] = system: BT20; assay: Cell Titer Glo proliferation assay; type: cell-based, human; conditions: BT20 breast cancer, PIK3CA mutant
Description: (§1) Cell Lines and Culture. Human cancer cell lines, were obtained from American Type Culture Collection (ATCC, Manassas, Va.), or the following additional indicated sources, and cultured in media as described. Tumor types are also indicated: H295R (adrenocortical carcinoma; ATCC), NCI-[…], NCI-[…], SW1573 (NSCLC; ATCC), […], BxPC3 (pancreatic; ATCC), OVCAR5 (ovarian; NCI), MDAH-2774 (ovarian; ATCC), Igrov1 (ovarian; NCI), GEO (colon; Roswell Park Cancer Institute (RPCC)), HT-29 (colon; ATCC), RKO (colon; ATCC), […], 8226 (myeloma; ATCC), H929 (myeloma; ATCC), U266 (myeloma; ATCC), SKES1 (Ewings sarcoma; ATCC), RDES (Ewings sarcoma; ATCC), RD (rhabdomyosarcoma; ATCC), DU4475 (breast; ATCC), SKNAS (neuroblastoma; ATCC), 2650 (nasal SCC; ATCC), OVCAR4 (ovarian; NCI), A673 (Ewings sarcoma; ATCC), BT474 (breast; ATCC), 1386 (oral SCC; MSKCC, NY), 1186 (SCCHN; MSKCC, NY), Colo205 (colon; ATCC), HCT-15 (colon; ATCC), Fadu (oral SCC; ATCC), SKBR3 (breast; ATCC), 1483 (HNSCC; MSKCC, NY), HSC-2 (HNSCC; RIKEN BioResource Center, Tsukuba, Ibaraki, 305-0074, Japan), SKOV-3 (ovarian; ATCC), OVCAR-3 (ovarian; NCI), OVCAR-8 (ovarian; NCI), CaOV3 (ovarian; ATCC). […] The cells were routinely screened for the presence of mycoplasma (MycoAlert, Cambrex Bio Science, Baltimore, Md.). For growth inhibition assays, cells were plated and allowed to proliferate for 24 hours. […] Cell viability was assayed using the Cell Titer-Glo reagent (Promega Corp., Madison, Wis.). Proliferation Assay. […] The basis of the assay is a luminescent quantitation of ATP present in a cell culture plate well. In essence, the greater the number of viable cells in the well, the greater the level of ATP present. The assay utilizes a substrate that binds ATP to produce a luminescent signal, which can be read on a luminometer. Unless otherwise noted, the manufacturer's instructions were followed exactly. Briefly, on Day 1, cells were plated in 120 μl of 10% serum-containing growth media at a density of 4000 cells/well in a white polystyrene 96 well assay plate. […] After 72 h incubation with the inhibitor, the cells were assayed. Results were calculated as a fraction of the DMSO controlled cells.

[2] = system: HCC1954; assay: Cell Titer Glo proliferation assay; type: cell-based, human; conditions: HCC1954 breast cancer, PIK3CA mutant
Description: as §1

[3] = system: LS174T; assay: Cell Titer Glo proliferation assay; type: cell-based, human; conditions: LS174T colon cancer, PIK3CA mutant
Description: as §1

[4] = system: MCF7; assay: Cell Titer Glo proliferation assay; type: cell-based, human; conditions: MCF7 breast cancer, PIK3CA mutant
Description: as §1

[5] = system: OVCAR4; assay: Cell Titer Glo proliferation assay; type: cell-based, human; conditions: OVCAR4, wild type KRAS
Description: as §1

[6] = system: OVK18; assay: Cell Titer Glo proliferation assay; type: cell-based, human; conditions: OVK18, wild type KRAS
Description: as §1

[7] = system: T47D; assay: Cell Titer Glo proliferation assay; type: cell-based, human; conditions: T47D breast cancer, PIK3CA mutant
Description: as §1

[8] = system: BxPC3; assay: Cell Titer Glo proliferation assay; type: cell-based; conditions: Homo sapiens, BXPC-3, read-out: EC50 in culture in vitro
Description: as §1

[9] = system: Colo205; assay: Cell Titer Glo proliferation assay; type: cell-based; conditions: Homo sapiens, COLO 205, read-out: EC50 in culture in vitro
Description: as §1

[10] = system: FaDu; assay: Cell Titer Glo proliferation assay; type: cell-based; conditions: Homo sapiens, read-out: EC50 in culture in vitro
Description: as §1

[11] = system: H295R; assay: Cell Titer Glo proliferation assay; type: cell-based; conditions: Homo sapiens, NCI-H295R; read-out: EC50 in culture in vitro
Description: as §1

[12] = system: H460; assay: Cell Titer Glo proliferation assay; type: cell-based; conditions: Homo sapiens, NCI-H460; read-out: EC50 in culture in vitro
Description: as §1

[13] = system: SKNAS; assay: Cell Titer Glo proliferation assay; type: cell-based; conditions: Homo sapiens, SK-N-AS, read-out: EC50 in culture in vitro
Description: as §1

[14] = system: A2780; assay: Cell Titer Glo proliferation assay, 88 cell line panel; type: cell-based, human; conditions: A2780 ovarian cancer, PTEN mutant, 72 hours
Experimental: (§2) Proliferation Assay. […] The basis of the assay is a luminescent quantitation of ATP present in a cell culture plate well. In essence, the greater the number of viable cells in the well, the greater the level of ATP present. The assay utilizes a substrate that binds ATP to produce a luminescent signal, which can be read on a luminometer. Unless otherwise noted, the manufacturer's instructions were followed exactly. Briefly, on Day 1, cells were plated in 120 μl of 10% serum-containing growth media at a density of 4000 cells/well in a white polystyrene 96 well assay plate. […] After 72 h incubation with the inhibitor, the cells were assayed. Results were calculated as a fraction of the DMSO controlled cells.
(§3) This included cell lines representing ovarian cancer (A2780 and EFO-27), SCCHN (HSC-4), SCLC (NCI-H446), CRC (KM12), lymphoma (MC116), breast cancer (BT549 and HCC70), and prostate cancer (PC3).

[15] = system: HCC70; assay: as above; type: cell-based, human; conditions: HCC70 breast cancer, PTEN mutant, 72 hours
Experimental: as §2, §3

[16] = system: HSC-4; assay: as above; type: cell-based, human; conditions: HSC-4 SCCHN, PTEN mutant, 72 hours
Experimental: as §2, §3

[17] = system: KM12; assay: as above; type: cell-based, human; conditions: KM12 CRC, PTEN mutant, 72 hours
Experimental: as §2, §3

[18] = system: NCI-H446; assay: as above; type: cell-based, human; conditions: NCI-H446 SCLC, PTEN mutant, 72 hours
Experimental: as §2, §3

[19] = system: PC3; assay: as above; type: cell-based, human; conditions: PC3 prostate cancer, PTEN mutant, 72 hours
Experimental: as §2, §3

[20] = system: BxPC3 tumors; assay: Tumor xenograft study; conditions: treatment in vivo for 10-14 days

`C[C@]1(O)C[C@@H](c2nc(-c3ccc4ccc(-c5ccccc5)nc4c3)c3c(N)nccn32)C1` [OSI-906, cis-3-[8-amino-1-(2-phenyl-quinolin-7-yl)-imidazo[1,5-a]pyrazin-3-yl]-1-methyl-cyclobutanol] was tested, and the “sensitivity to OSI-906” value [1] was “insensitive (insensitive (EC50>10 μM))”, the “sensitivity to OSI-906” value [2] was “insensitive (insensitive (EC50>10 μM))” and the “sensitivity to OSI-906” value [3] was “sensitive (sensitive (EC50<1 μM))”. For the same molecule, the “sensitivity to OSI-906” value [4] was “sensitive (sensitive (EC50<1 μM))”, the “sensitivity to OSI-906” value [5] was “insensitive (insensitive (EC50>10 μM))” and the “sensitivity to OSI-906” value [6] was “insensitive (insensitive (EC50>10 μM))”. For the same molecule, the “sensitivity to OSI-906” value [7] was “insensitive (insensitive (EC50>10 μM))”, the EC50 [8] was under 1000 nM and the EC50 [9] was under 1000 nM. The EC50 [10] was over 10000 nM, the EC50 [11] was under 1000 nM and the EC50 [12] was over 10000 nM. The EC50 [13] was under 1000 nM, the “sensitivity to OSI-906” value [14] was “insensitive (insensitive (EC50>10 μM))” and the “sensitivity to OSI-906” value [15] was “insensitive (insensitive (EC50>10 μM))”. The “sensitivity to OSI-906” value [16] was “insensitive (insensitive (EC50>10 μM))”, the “sensitivity to OSI-906” value [17] was “insensitive (insensitive (EC50>10 μM))” and the “sensitivity to OSI-906” value [18] was “insensitive (insensitive (EC50>10 μM))”. The “sensitivity to OSI-906” value [19] was “insensitive (insensitive (EC50>10 μM))” and the “% TGI (tumor growth inhibition)” value [20] was 56%.

From patent publication US20110217309A1, “BIOLOGICAL MARKERS PREDICTIVE OF ANTI-CANCER RESPONSE TO INSULIN-LIKE GROWTH FACTOR-1 RECEPTOR KINASE INHIBITORS” (priority 2010, published 2011)
